Source: patent US20250154193A1, “STEROID COMPOUND, AND PREPARATION METHOD THEREFOR AND APPLICATION THEREOF” (CHOLESGEN (SHANGHAI) CO., LTD., priority 2022, published 2025)

How the values were obtained:
[1] = Liver microsomal metabolic stability assay; assay type: in vitro ADME; settings: rat liver microsomes, NADPH, 37° C., 0-60 minutes; read-out: Rat microsomal metabolic half-life (t1/2)
Procedure: PBS solution (100 mM), MgCl2 solution (100 mM), and NADPH solution (20 mM) were prepared respectively. Compound and testosterone (positive control) stock solutions were then prepared with dimethyl sulfoxide (DMSO), diluted to 100 µM with methanol for sample incubation, and stored at −10 to −30° C. 12.5 μL of rat liver microsomes (purchased from XenoTech, Cat. No.: R1000, Lot No.: 1310030, specification: 20 mg/mL), 432.5 µL of PBS solution (100 mM), 25 µL of NADPH solution (20 mM), and 25 μL of MgCl2 solution (100 mM) were added to a 96-well plate, mixed well, and pre-incubated at 37° C. for 5 minutes. 5 µL of substrate (test compound) solution was added to start the reaction. At specified time points of 0, 5, 15, 30, 45, and 60 minutes (0 and 60 minutes for the negative control group), 50 µL of the incubated samples were added to a stop plate containing 100 µL of ice-cold stop solution, vortexed for 1 minute to inactivate the reaction, and stored at −60 to −90° C. for subsequent analysis. Sample analysis of the test compound and the control compound testosterone was performed using LC-MS/MS method. Chromatographic peaks were integrated, calculated, and processed using Analyst software. Semi-quantitative analysis was performed for both the test compound and the control compound testosterone by calculating peak area ratios.

Ldlr−/− mice = test: Sudan IV staining of atherosclerotic plaques of the aortic tree; assay type: in vivo; settings: AMLN diet, intragastrically once a day, 8 weeks, vs control group
Source text: After the administration experiment in mice, the aorta was isolated and fixed in 4% PFA. Perivascular adipose tissues were removed with ophthalmic forceps under a stereo microscope, stained with Sudan IV, and atherosclerotic plaques were washed in 70% ethanol. After staining, the aortic tree was imaged using a ZEISS Axio Zoom.V16 stereo microscope. Atherosclerotic lesions were quantified using ImageJ software.
AMLN-fed Ldlr^−/− mice also served as a common model for atherosclerosis, allowing simultaneous study of both fatty liver and atherosclerosis. Male Ldlr^−/− mice at 8 weeks of age were fed with AMLN diet and intragastrically administered once a day for a total of 8 weeks. After the mice were euthanized, the aorta was isolated and fixed in 4% paraformaldehyde. Perivascular adipose tissues were removed under a stereo microscope, stained with Sudan IV, and rinsed with 70% ethanol. The aortic tree was imaged using a stereo microscope (Axio Zoom.V16, ZEISS, Germany). Atherosclerotic plaques were quantified using ImageJ software.

liver organoids = test: Real-time quantitative PCR of lipogenesis- and fibrosis-related genes in fatty liver organoids; assay type: cell-based, mice; settings: mouse fatty liver organoids, 1 and 3 μM, 72 hours, qPCR
Source text: Liver samples or liver organoid samples were homogenized in TRI Reagent (T9424, Sigma), and total RNA was extracted according to the manufacturer's instructions. Equal amounts of RNA template were used to synthesize cDNA with oligo dT primers and MLV reverse transcriptase (Promega). Quantitative data for genes were collected using the Bio-Rad CFX96 real-time PCR system, and the relative amount of gene mRNA was quantified using the comparative CT method.
C57BL/6N mice were fed with fatty liver-inducing diet (TrophicDiet, TP2630052A, containing 10.2% kcal protein, 37.3% kcal carbohydrate, and 52.6% kcal fat) and fructose-containing drinking water (23.1 g of fructose and 18.9 g of dextrose were dissolved in 1 L of water, then filtered and sterilized) for a total of 16 weeks starting at 12 weeks of age to generate a fatty liver model. To generate fatty liver organoids, liver tissues from mice with fatty liver were minced and digested in digestion buffer at 37° C. for 30 to 60 minutes. The digestion buffer included DMEM/F-12 (Cytiva, SH30023.01), 2.5 mg/mL collagenase D (Roche, COLLD-RO), and 0.1 mg/mL DNaseI (Sigma-Aldrich, DN25). […]
To distinguish whether the inhibitory effect of 25-hydroxylanosterol is directly based on its effect on the liver or a systemic effect, we utilized 3D liver organoids as an in vitro model for the study of fatty liver to analyze the effect of 25-hydroxylanosterol on lipogenesis and fibrosis marker expression in liver organoids. […] RNA from the organoids was collected and analyzed for the differential expression of lipogenesis-related genes (Hmgcs, Hmgcr, SCD1, and FASN) and fibrosis markers (αSMA and Colla1) using fluorescent real-time quantitative PCR.
In FIGS. 35 and 36, data are represented as mean±standard deviation. P values were calculated using one-way ANOVA; ns indicates no statistical difference; * indicates P<0.05; ** indicates P<0.01; *** indicates P<0.001. In FIGS. 47 and 53, quantitative analysis was performed using ImageJ software. […] P values were calculated using one-way ANOVA; * indicates P<0.05; ** indicates P<0.01; *** indicates P<0.001.

C[C@H](CCCC(C)(C)O)[C@H]1CC[C@@]2(C)C3=C(CC[C@]12C)[C@@]1(C)CC[C@H](O)C(C)(C)[C@@H]1CC3 [compound 68, (1R,3aR,5aR,7S,9aS,11aR)-1-[(2R)-6-hydroxy-6-methylheptan-2-yl]-3a,6,6,9a,11a-pentamethyl-2,3,3a,4,5,5a,6,7,8,9,9a,10,11,11a-tetradecahydro-1H-cyclopenta[1,2-a]phenanthren-7-ol]
half-life at 1 µM [1]: 8.36 min
formation and quantity of atherosclerotic plaques (Sudan IV staining of aortic tree) (Ldlr−/− mice): significantly reduced
expression levels of fibrosis-related genes (Col1a1 and αSMA) (liver organoids): significantly inhibited
expression levels of lipogenesis-related genes (Hmgcs, Hmgcr, SCD1, and FASN) (liver organoids): significantly inhibited
